Assay results from US9907859B2 (priority 2010, dated 2018).
≈ marks a conversion by molar mass, not a printed value. Read-outs that look alike come from different tables or passages of the source.

Legend:
[1] = mouse, in vivo; for AUC0-24: po, 300 mg/kg
[2] = in vivo; conditions: both, cynomolgus monkey; for AUC(0-inf): AUCINF—obs; for bioavailability: cynomolgus, po
[3] = physchem; conditions: aqueous with cosolvent or surfactant or cyclodextrin
[4] = New Zealand White, rabbit, in vivo
[5] = tested on: camelpox; conditions: read-out: 50% effective concentration [EC50], inhibition of virus replication; cited from earlier work

With `O=C(NN1C(=O)C2C3C=CC(C4CC34)C2C1=O)c1ccc(C(F)(F)F)cc1` (centres unmarked) [ST-246, 4-trifluoromethyl-N-(3,3a,4,4a,5,5a,6,6a-octahydro-1,3-dioxo-4,6-ethenocycloprop[f]isoindol-2(1H)-yl)-benzamide] as the molecule, how does the “increase of apparent clearance after oral dosing” value ([1]; female, BALB/c) read?
Its value is “approximately 10 fold”.

What about the AUC0-24 ([1]; female) of the same molecule?
The AUC0-24 was 688685 ng·h/mL.

What about the AUC0-24 ([1]; male) of the same molecule?
Its AUC0-24 is 669961 ng·h/mL.

What about the AUC(0-t) ([2]; iv, 1 mg/kg) of the same molecule?
The AUC(0-t) was 1880 ± 455 ng·h/mL.

And the AUC(0-inf) ([2]; iv, 1 mg/kg)?
The AUC(0-inf) was 1940 ± 459 ng·h/mL.

And the clearance ([2]; iv, 1 mg/kg, CL)?
Its clearance is 8.95 mL/min/kg.

And the Cmax ([2]; iv, 1 mg/kg)?
The Cmax was 384 ± 112 ng/mL.

And the half-life ([2]; iv, 1 mg/kg, T1/2)?
Its half-life is 6.6 ± 6 h.

And the Tmax ([2]; iv, 1 mg/kg)?
Its Tmax is 4 h.

What about the AUC(0-t) ([2]; iv, 3 mg/kg) of the same molecule?
The AUC(0-t) was 5650 ± 784 ng·h/mL.

What about the AUC(0-inf) ([2]; iv, 3 mg/kg) of the same molecule?
The AUC(0-inf) was 5830 ± 870 ng·h/mL.

What about the clearance ([2]; iv, 3 mg/kg, CL) of the same molecule?
The clearance was 8.72 mL/min/kg.

And the Cmax ([2]; iv, 3 mg/kg)?
Its Cmax is 1050 ± 185 ng/mL.

And the half-life ([2]; iv, 3 mg/kg, T1/2)?
Its half-life is 8.5 ± 3.2 h.

What about the Tmax ([2]; iv, 3 mg/kg) of the same molecule?
Its Tmax is 4 h.

What about the AUC(0-t) ([2]; iv, 10 mg/kg) of the same molecule?
Its AUC(0-t) is 21100 ± 3450 ng·h/mL.

And the AUC(0-inf) ([2]; iv, 10 mg/kg)?
The AUC(0-inf) was 21300 ± 3400 ng·h/mL.

And the clearance ([2]; iv, 10 mg/kg, CL)?
The clearance was 7.97 mL/min/kg.

What about the Cmax ([2]; iv, 10 mg/kg) of the same molecule?
The Cmax was 4400 ± 935 ng/mL.

And the half-life ([2]; iv, 10 mg/kg, T1/2)?
The half-life was 8.6 ± 1.3 h.

What about the Tmax ([2]; iv, 10 mg/kg) of the same molecule?
The Tmax was 4 h.

And the AUC(0-inf) ([2]; iv, 15 mg/kg)?
Its AUC(0-inf) is 32500 ± 5700 ng·h/mL.

What about the clearance ([2]; iv, 15 mg/kg, CL) of the same molecule?
Its clearance is 5.85 mL/min/kg.

What about the Cmax ([2]; iv, 15 mg/kg) of the same molecule?
The Cmax was 7360 ± 1470 ng/mL.

And the half-life ([2]; iv, 15 mg/kg, T1/2)?
The half-life was 9.1 ± 2.6 h.

And the Tmax ([2]; iv, 15 mg/kg)?
Its Tmax is 4 h.

And the AUC(0-inf) ([2]; iv, 20 mg/kg)?
Its AUC(0-inf) is 59600 ± 10100 ng·h/mL.

What about the clearance ([2]; iv, 20 mg/kg, CL) of the same molecule?
Its clearance is 5.88 mL/min/kg.

And the Cmax ([2]; iv, 20 mg/kg)?
The Cmax was 11800 ± 2000 ng/mL.

What about the half-life ([2]; iv, 20 mg/kg, T1/2) of the same molecule?
The half-life was 8.7 ± 2.5 h.

What about the Tmax ([2]; iv, 20 mg/kg) of the same molecule?
The Tmax was 4 h.

And the AUC(0-inf) ([2]; iv, 30 mg/kg)?
Its AUC(0-inf) is 100000 ± 18000 ng·h/mL.

What about the clearance ([2]; iv, 30 mg/kg, CL) of the same molecule?
The clearance was 5.12 mL/min/kg.

What about the Cmax ([2]; iv, 30 mg/kg) of the same molecule?
The Cmax was 20100 ± 4200 ng/mL.

And the half-life ([2]; iv, 30 mg/kg, T1/2)?
The half-life was 7.8 ± 0.7 h.

What about the Tmax ([2]; iv, 30 mg/kg) of the same molecule?
Its Tmax is 4 h.

What about the clearance ([2]; iv, clearance) of the same molecule?
Its clearance is about 8.33 mL/min/kg.

And the half-life ([2]; iv, elimination half-lives)?
Its half-life is 6.6 to 9.1 h.

And the half-life ([2]; iv, terminal elimination half-life)?
Its half-life is 6.6 to 8.6 h.

And the half-life ([2]; terminal elimination half-life)?
Its half-life is 8.9 h.

What about the bioavailability ([2]; 3 mg/kg) of the same molecule?
Its bioavailability is 77%.

And the bioavailability ([2]; 20 mg/kg)?
The bioavailability was 31%.

What about the bioavailability ([2]; 30 mg/kg) of the same molecule?
Its bioavailability is 31%.

And the solubility ([3]; 4 °C, Solubility of ST-246, 4 ° C.)?
The solubility was 6290 µg/mL (≈ 16.7 mM).

And the solubility ([3]; 25 °C, Solubility of ST-246, 25 ° C.)?
The solubility was 7570 µg/mL (≈ 20.1 mM).

And the solubility ([3]; 40 °C, Solubility of ST-246, 40 ° C.)?
Its solubility is 11200 µg/mL (≈ 29.7 mM).

What about the solubility ([3]; 60 °C, Solubility of ST-246, 60 ° C.) of the same molecule?
The solubility was 16200 µg/mL (≈ 43.2 mM).

What about the AUC0-24 hr ([4]; both, iv, 3 mg/kg) of the same molecule?
The AUC0-24 hr was 3390 ± 1070 ng·h/mL.

What about the CL ([4]; both, iv, 3 mg/kg) of the same molecule?
The CL was 16.1 ± 6.05 mL/min/kg.

What about the “mean maximum plasma concentration” value ([4]; both, iv, 30 mg/kg) of the same molecule?
Its value is 38.5 µg/mL.

What about the peak plasma concentration ([4]; female, 3 mg/kg) of the same molecule?
Its peak plasma concentration is 4345 ng/mL.

And the peak plasma concentration ([4]; male, 3 mg/kg)?
Its peak plasma concentration is 7225 ng/mL.

And the EC50 [5]?
Its EC50 is at most 70 nM.
